Reference: PMC12216609, “Inhibitors of eIF1A-ribosome interaction unveil uORF-dependent regulation of translation initiation and antitumor and antiviral effects” (The EMBO Journal, 2025)
Where “and” joins values, the source holds several entries; their conditions need not be identical. Equal values may be shown once. Read-outs that look alike come from different tables or passages of the source.

What was measured:
eIF1A-RPS10 interaction = target: T1, eIF1A-RPS10 interaction (Homo sapiens, UniProt P46783+P47813); test: Split-Renilla luciferase eIF1A-RPS10 interaction screen, dose-response; format: biochemical; conditions: summary table; read-out: IC50 concentration (µM), IC50 screen
T1 construct: made in house; host or cells: E. coli BL21 (PRSFduet); unpurified lysate supernatant
T1 sequence (P47813 whole entry, one chain of several): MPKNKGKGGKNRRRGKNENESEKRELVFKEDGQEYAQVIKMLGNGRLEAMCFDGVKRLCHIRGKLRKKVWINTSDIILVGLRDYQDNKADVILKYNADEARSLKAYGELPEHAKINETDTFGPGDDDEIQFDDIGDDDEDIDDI
Protocol: While knockdown (KD) studies of eIF1A provided valuable insights into its role in mammalian cell translation (Sehrawat et al, [2019]), this approach presents several limitations. First, it fails to elucidate the functional significance of the opposing functions of eIF1A N- and C-terminal tails with respect to scanning and start codon fidelity. Second, the extended duration required for achieving efficient knockdown, 48–72 h, impairs our ability to differentiate between direct and indirect effects. To overcome these constraints, we set out to develop small-molecule inhibitors targeting eIF1A. Guided by structural and biochemical studies showing eIF1A binding to the small ribosomal subunit at the A-site and interacting directly with RPS10 through its N-terminal tail (Haimov et al, [2017]; Passmore et al, [2007]; Sehrawat et al, [2019]), our approach focused on disrupting the interaction between eIF1A and RPS10. […] The interaction between eIF1A and RPS10 brings the two parts together, leading to the reconstitution of the enzymatic activity (Haimov et al, [2017]). In this system, the spatial arrangement of the two RL parts is critical for the enzymatic activity, making it sensitive not only to direct interference with the interacting proteins but also to changes in the conformation of the fused proteins. In the eIF1A-RPS10 split-RL pair, the C-terminus of eIF1A is fused to N-RL (Fig. 1A), in order to maintain the NTT accessible to RPS10 binding. This pair was cloned and expressed in bacteria as recombinant proteins and used to screen a library of ~50,000 small molecules from diverse sources (Ashkenazi et al, [2017]).
eIF1A-ΔC-Renilla and RPS10-ΔN-Renilla were transformed into BL21 E. coli by heat shock transformation. A bacterial starter of 5 ml LB was incubated overnight at 37 °C and transferred into 1 L LB for incubation at 37 °C until OD ~ 0.5–0.7. Next, protein expression was induced with 0.5 mM IPTG, and bacterial cells were incubated overnight at 16 °C. Bacterial cell pellet was collected after centrifugation (3000 RPM, 15 min), resuspended in 20 ml TKE buffer (Tris 10 mM, KCl 100 mM, EDTA 0.1 mM), sonicated (bath sonicator, 24 cycles of 30 s) and centrifuged again (15000 RPM, 30 min). Supernatants were collected, analyzed for RL activity, and then used for high throughput drug screen (HTS) at the Weizmann G-INCPM HTS unit as described (Ashkenazi et al, [2017]). In addition to the standard controls of this protocol, the two parts of the split RL, without eIF1A or RPS10, were tested as controls. Selected compounds were purchased from Sigma-Aldrich and Enamine. Compound powders were resuspended in DMSO for a final concentration of 10 mM and stored at −20 °C.

eIF1A without NTT = target: T2, eIF1A without NTT (Homo sapiens, UniProt P47813); test: Fluorescence binding assay with NTT-truncated eIF1A; conditions: for fluorescence ratio, eIF1A Δ NTT: background-corrected, relative to DMSO or lowest 1Ai concentration, replicate columns
T2 construct: His-bdSUMO (cleaved yes); made in house; host or cells: E. coli (BL-21)
T2 sequence (P47813 31-144 limits assumed): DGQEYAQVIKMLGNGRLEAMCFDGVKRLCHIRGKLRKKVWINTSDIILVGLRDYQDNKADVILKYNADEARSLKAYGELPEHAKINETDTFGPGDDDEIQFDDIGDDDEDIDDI

eIF1A without CTT = target: T3, eIF1A without CTT (Homo sapiens, UniProt P47813); format: binding; conditions: for fluorescence ratio, eIF1A Δ CTT: background-corrected, relative to DMSO or lowest 1Ai concentration, replicate columns
T3 construct: His-bdSUMO (cleaved yes); made in house; host or cells: E. coli (BL-21)
T3 sequence (P47813 1-114 limits assumed): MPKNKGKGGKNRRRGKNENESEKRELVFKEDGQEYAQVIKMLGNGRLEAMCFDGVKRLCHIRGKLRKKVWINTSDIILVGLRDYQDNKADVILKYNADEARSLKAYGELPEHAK

Cn1c(=O)c2ccccc2n2c(CNC(c3ccc4c(c3)CCC4)c3cccs3)nnc12 (stereo not drawn) [1Ai-7688]
IC50 (eIF1A-RPS10 interaction): 20 µM

O=C(CSc1nc(-c2ccccc2)cn1-c1ccccc1)NC(=O)Nc1ccccc1 [1Ai-2383]
IC50 (eIF1A-RPS10 interaction): 23 µM

Cc1cc(-n2c(C)cc(-c3csc(N)n3)c2C)no1 [1Ai-6464]
IC50 (eIF1A-RPS10 interaction): 13 µM
fluorescence ratio, eIF1A Δ NTT (eIF1A without NTT; 1Ai conc. 0.25 uM): 0.925 and 0.9309
fluorescence ratio, eIF1A Δ NTT (eIF1A without NTT; 1Ai conc. 0.5 uM): 1.072 and 0.9557
fluorescence ratio, eIF1A Δ NTT (eIF1A without NTT; 1Ai conc. 1 uM): 1.214 and 0.9982
fluorescence ratio, eIF1A Δ NTT (eIF1A without NTT; 1Ai conc. 2 uM): 1.067 and 1.004
fluorescence ratio, eIF1A Δ NTT (eIF1A without NTT; 1Ai conc. 4 uM): 1.128 and 0.9504
fluorescence ratio, eIF1A Δ NTT (eIF1A without NTT; 1Ai conc. 8 uM): 1.103 and 0.7642
fluorescence ratio, eIF1A Δ NTT (eIF1A without NTT; 1Ai conc. 16 uM): 0.8611 and 0.7181
fluorescence ratio, eIF1A Δ NTT (eIF1A without NTT; 1Ai conc. 32 uM): 0.7861 and 0.6206
fluorescence ratio, eIF1A Δ NTT (eIF1A without NTT; 1Ai conc. 64 uM): 0.6389 and 0.5018
fluorescence ratio, eIF1A Δ NTT (eIF1A without NTT; 1Ai conc. 256 uM): 0.4333 and 0.2642
IC50 (eIF1A without NTT; eIF1A Δ NTT, from the titration data, read-out: IC50 (eIF1A Δ NTT titration block)): 37 µM
IC50 (eIF1A without NTT; summary table, fluorescence binding assay, read-out: IC50 concentration (µM), NTT truncation): 37 µM
fluorescence ratio, eIF1A Δ CTT (eIF1A without CTT; 1Ai conc. 0.25 uM): 0.827 and 0.948
fluorescence ratio, eIF1A Δ CTT (eIF1A without CTT; 1Ai conc. 0.5 uM): 0.8882 and 1.055
fluorescence ratio, eIF1A Δ CTT (eIF1A without CTT; 1Ai conc. 1 uM): 0.8515 and 1.0065
fluorescence ratio, eIF1A Δ CTT (eIF1A without CTT; 1Ai conc. 2 uM): 0.8637 and 0.9317
fluorescence ratio, eIF1A Δ CTT (eIF1A without CTT; 1Ai conc. 4 uM): 0.8683 and 0.9724
fluorescence ratio, eIF1A Δ CTT (eIF1A without CTT; 1Ai conc. 8 uM): 0.6692 and 0.7821
fluorescence ratio, eIF1A Δ CTT (eIF1A without CTT; 1Ai conc. 16 uM): 0.7305 and 0.6862
fluorescence ratio, eIF1A Δ CTT (eIF1A without CTT; 1Ai conc. 32 uM): 0.608 and 0.5594
fluorescence ratio, eIF1A Δ CTT (eIF1A without CTT; 1Ai conc. 64 uM): 0.4364 and 0.4829
fluorescence ratio, eIF1A Δ CTT (eIF1A without CTT; 1Ai conc. 256 uM): 0.1547 and 0.1772
IC50 (eIF1A without CTT; eIF1A Δ CTT, from the titration data, read-out: IC50 (eIF1A Δ CTT titration block)): 35.4 µM
IC50 (eIF1A without CTT; summary table, fluorescence binding assay, read-out: IC50 concentration (µM), CTT truncation): 35.4 µM
